Values belong to the molecule of their own block, whether it stands above or below them. Ends that are not written are not given here.
Legend:
CrypDdi1-RVP [1] = target: T1, CrypDdi1-RVP (Cryptosporidium hominis, UniProt A0A0S4TE75); experiment: Bio-layer interferometry (BLI), CrypDdi1-RVP; format: binding, C. hominis; details: inhibitor 75-600 μM; for binding of inhibitor to CrypDdi1-RVP: MES pH 5.5
T. gondii = details: ref Wang et al., 2019; cited from earlier work
ToxoDdi1-RVP [2] = target: T2, ToxoDdi1-RVP (Toxoplasma gondii, UniProt S7W9N7); experiment: FRET activity assay with HIV protease substrate-1 and inhibition by HIV protease inhibitors, ToxoDdi1-RVP; format: biochemical, T. gondii
T2 sequence (S7W9N7 entry or part of it): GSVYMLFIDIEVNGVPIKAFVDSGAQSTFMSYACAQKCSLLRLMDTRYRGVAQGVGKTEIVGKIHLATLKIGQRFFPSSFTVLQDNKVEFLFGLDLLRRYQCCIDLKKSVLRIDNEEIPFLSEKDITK
Method: (§1) The activity assay was carried out using HIV protease substrate-1 (Sigma-aldrich). […] It contains the HIV protease cleavage site (Tyr-Pro) and two covalently modified amino acids for the detection of the proteolytic activity: the fluorophore EDANS was attached to the glutamic acid residue on the N-terminal side and the acceptor chromophore DABCYL to the lysine residue on the C-terminal side of the scissile bond. EDANS excited with light at 340 nm emits light at 490 nm which gets absorbed by the DABCYL group. Cleavage of the peptide separates the modified amino acids quenching FRET and emission could be detected at 490 nm ToxoDdi1-RVP and CrypDdi1-RVP were added in different concentrations to 2 μM of HIV protease substrate-1 in a buffer containing 0.1M sodium acetate pH 4.5, 1.0 M sodium chloride, 1.0 mM EDTA, 1.0 mM DTT and 10% DMSO. […] All the samples were incubated at 37 °C for 1 h and the fluorescence emission was recorded at 490 nm.

human Ddi2 = details: ref Gu et al., 2020, Fassmannova et al.; cited from earlier work
ToxoDdi1-RVP [3] = target: T2, ToxoDdi1-RVP; experiment: biochemical; format: binding
CrypDdi1-RVP [4] = target: T1, CrypDdi1-RVP; experiment: FRET activity assay with HIV protease substrate-1 and inhibition by HIV protease inhibitors, CrypDdi1-RVP; format: biochemical, C. hominis
Method: as §1

CrypDdi1-RVP [5] = target: T1, CrypDdi1-RVP; experiment: HPLC cleavage of HIV protease substrate-1 by CrypDdi1-RVP; format: biochemical, C. hominis; details: 10 μM substrate, 22 μg/ml CrypDdi1-RVP, UV 490 nm
ToxoDdi1-RVP [6] = target: T2, ToxoDdi1-RVP; experiment: HPLC cleavage of HIV protease substrate-1 by ToxoDdi1-RVP; format: biochemical, T. gondii; details: 10 μM substrate, 22 μg/ml ToxoDdi1-RVP, 100 mM sodium acetate pH 4.7, 1 M NaCl, 1 mM DTT, 37 °C, UV 490 nm
[7] = target: CrypDdi1-RVP (Cryptosporidium hominis); experiment: crystal structure; CrypDdi1-RVP, microbatch, 8 mg/ml, 0.1 M MES-sodium hydroxide pH 6.0, 30% polyacrylate sodium salt, 10% ethanol, 291 K; space group H32, one molecule in the asymmetric unit, dimer by crystallographic 2-fold symmetry
LeishDdi1-fl = target: T3, LeishDdi1-fl (Leishmania major, UniProt I7HUG0); experiment: BLI binding of peptides to LeishDdi1-fl; parameters: species or system L. major; details: 5 mM peptide immobilized on AR2G tip, LeishDdi1-fl in solution, 20 mM HEPES pH 7.5, 100 mM NaCl, 10 min, 1:1 Langmuir
T3 construct: The full length Ddi1 construct, LeishDdi1-fl (1–390 aa) was cloned in pET-28a vector; hexa-histidine (N); made in house; host or cells: E. coli BL-21
T3 sequence (I7HUG0 whole entry, the tested form may be a part): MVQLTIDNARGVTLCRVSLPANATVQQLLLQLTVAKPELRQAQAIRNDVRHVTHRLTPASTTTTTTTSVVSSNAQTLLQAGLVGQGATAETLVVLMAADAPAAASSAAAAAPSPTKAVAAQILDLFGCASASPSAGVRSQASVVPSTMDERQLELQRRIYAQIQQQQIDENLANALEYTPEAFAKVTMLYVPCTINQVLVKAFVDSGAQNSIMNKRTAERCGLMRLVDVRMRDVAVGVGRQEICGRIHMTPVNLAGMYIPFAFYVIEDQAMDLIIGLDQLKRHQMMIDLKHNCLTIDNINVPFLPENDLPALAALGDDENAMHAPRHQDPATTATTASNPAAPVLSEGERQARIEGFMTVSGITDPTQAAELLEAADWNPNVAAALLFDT

[8] = target: ToxoDdi1-RVP (Toxoplasma gondii); experiment: crystal structure; ToxoDdi1-RVP, microbatch, 8 mg/ml, 1.8 M ammonium citrate tribasic pH 7.0, 30% 2-propanol, 291 K; space group P41212, six dimers in the asymmetric unit

T1 sequence (A0A0S4TE75 entry or part of it): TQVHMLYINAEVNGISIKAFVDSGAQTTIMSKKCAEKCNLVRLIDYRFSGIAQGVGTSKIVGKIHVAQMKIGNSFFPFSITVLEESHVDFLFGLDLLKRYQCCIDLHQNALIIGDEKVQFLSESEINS

- binding of inhibitor to CrypDdi1-RVP (CrypDdi1-RVP [1]): do not bind
Molecule: CC(C)(C)NC(=O)[C@@H]1CN(Cc2cccnc2)CCN1C[C@@H](O)C[C@@H](Cc1ccccc1)C(=O)N[C@H]1c2ccccc2C[C@H]1O [indinavir]

Molecule: Cc1c(O)cccc1C(=O)N[C@@H](CSc1ccccc1)[C@H](O)CN1C[C@H]2CCCC[C@H]2C[C@H]1C(=O)NC(C)(C)C [nelfinavir]
- growth of T. gondii (T. gondii): inhibit the growth of T. gondii
- effect on proteolytic activity of ToxoDdi1-RVP (ToxoDdi1-RVP [2]; 500 μM inhibitor, 20 μM ToxoDdi1-RVP, 2 μM HIV protease substrate-1, 0.1M sodium acetate pH 4.5, 1.0 M NaCl, 1.0 mM EDTA, 1.0 mM DTT, 10% DMSO, 37 °C, 1 h, emission 490 nm): has an inhibitory effect on the proteolytic activity of ToxoDdi1-RVP
- fluorescence intensity in the presence of inhibitor, ToxoDdi1-RVP (ToxoDdi1-RVP [2]; 500 μM inhibitor, 20 μM ToxoDdi1-RVP, FRET, 490 nm, 37 °C, 1 h): did not increase
- inhibition of human Ddi2 activity (human Ddi2): ability to inhibit the activity of human Ddi2
- binding of inhibitor to CrypDdi1-RVP (CrypDdi1-RVP [1]): do not bind
- Kd (ToxoDdi1-RVP [3]): 238 ± 6.3 µM

Molecule: CC(C)c1nc(CN(C)C(=O)N[C@H](C(=O)N[C@@H](Cc2ccccc2)C[C@H](O)[C@H](Cc2ccccc2)NC(=O)OCc2cncs2)C(C)C)cs1 [ritonavir]
- growth of T. gondii (T. gondii): inhibit the growth of T. gondii

Molecule: CC(C)(C)NC(=O)[C@@H]1C[C@@H]2CCCC[C@@H]2CN1C[C@@H](O)[C@H](Cc1ccccc1)NC(=O)[C@H](CC(N)=O)NC(=O)c1ccc2ccccc2n1 [saquinavir]
- effect on proteolytic activity of CrypDdi1-RVP (CrypDdi1-RVP [4]; 500 μM inhibitor, 20 μM CrypDdi1-RVP, 2 μM HIV protease substrate-1, 0.1M sodium acetate pH 4.5, 1.0 M NaCl, 1.0 mM EDTA, 1.0 mM DTT, 10% DMSO, 37 °C, 1 h, emission 490 nm): has an inhibitory effect on the proteolytic activity of CrypDdi1-RVP
- fluorescence intensity in the presence of inhibitor, CrypDdi1-RVP (CrypDdi1-RVP [4]; 500 μM inhibitor, 20 μM CrypDdi1-RVP, FRET, 490 nm, 37 °C, 1 h): did not increase
- Kd (CrypDdi1-RVP [1]; Octet Red96, His-tagged CrypDdi1-RVP on Ni-NTA tip, 100 mM MES pH 5.5, 150 mM NaCl, 0.5% BSA, 0.05% Tween 20, 3 min, 1:1 Langmuir): 242 ± 3 µM
- binding of inhibitor to ToxoDdi1-RVP (ToxoDdi1-RVP [3]; BLI, inhibitor 75-600 μM, MES pH 5.5): do not bind

Molecule: Arg-Glu(EDANS)-Ser-Gln-Asn-Tyr-Pro-Ile-Val-Gln-Lys(DABCYL)-Arg [HIV protease substrate-1, synthetic FRET peptide containing the HIV protease cleavage site (Tyr-Pro), Sigma-aldrich]
- substrate cleavage: fluorescence intensity with increasing protein concentration, CrypDdi1-RVP (CrypDdi1-RVP [4]; 2 μM substrate, no inhibitor, different CrypDdi1-RVP concentrations): An increase in the fluorescence intensity was observed with increasing protein concentration
- substrate cleavage by HPLC, CrypDdi1-RVP, 1 h (CrypDdi1-RVP [5]; 100 mM sodium acetate pH 4.7, 1 M NaCl, 1 mM DTT, 37 °C, 1 h): completely cleaved
- substrate cleavage by HPLC, CrypDdi1-RVP, 30 min (CrypDdi1-RVP [5]; pH 4.7, 37 °C, 30 min): both the substrate and the product were detected
- substrate cleavage by HPLC, ToxoDdi1-RVP, 1 h (ToxoDdi1-RVP [6]): completely cleaved
- substrate cleavage: fluorescence intensity with increasing protein concentration, ToxoDdi1-RVP (ToxoDdi1-RVP [2]; 2 μM substrate, no inhibitor, different ToxoDdi1-RVP concentrations): An increase in the fluorescence intensity was observed with increasing protein concentration

- stoichiometry N [7]: 2
Molecule: CrypDdi1-RVP (domain or fragment)

Molecule: GVGRQEI [GVGRQEI]
- Kd (LeishDdi1-fl): 25.3 ± 3.5 µM

Molecule: MIWRKPW [MIWRKPW]
- Kd (LeishDdi1-fl): 2.8 ± 1.5 µM

Molecule: ToxoDdi1-RVP (domain or fragment)
- stoichiometry N [8]: 2

— article PMC9168383, “Structural and functional insights into the DNA damage-inducible protein 1 (Ddi1) from protozoa” (Current Research in Structural Biology, 2022)
